Patent US20070135997A1, “Methods for analysis of biological dataset profiles” (priority 2003, published 2007)
“Also recorded” adds a separate entry of the source.

Tested on: VCAM-1 expression in human umbilical vein endothelial cells (HUVEC)
Assay: Cell-based ELISA of VCAM-1 expression in cytokine-stimulated, gene-transduced endothelial cells
Text: Cytokines, antibodies, and cell culture. Recombinant human IFN-γ, TNF-α, and IL-1βwere from R&D Systems, Murine IgG from Sigma, Mouse anti-human ICAM-1 (clone B4H10) from Beckman Coulter and mouse anti-human E-selectin (clone ENA1) from HyCult Biotechnology. Unconjugated mouse antibodies against human VCAM-1 (clone 51-10C9), CD31 (clone WM-59), HLA-DR (clone G46-6), MIG (clone B8-77), and MCP-1 (clone 5D3-F7) were from BD Biosciences. Mouse anti-human IL-8 (clone 6217.111) was from R&D Systems. PD098059 was from Calbiochem. EGM-2 medium and required supplements were from Clonetics. Human umbilical vein endothelial cells (HUVEC) were from Clonetics; cultured in microtiter plates in EGM-2 medium containing manufacturer's supplements plus 2% heat-inactivated fetal bovine serum. […] PD098059 (3.7 μM final concentration) was added 1 hr before stimulation and was present during the whole 24 hr stimulation period.
Cell-based ELISAs. Cell-based ELISAs were carried out as previously described. Briefly, microtiter plates containing treated and stimulated HUVEC were blocked, and then incubated with primary antibodies or isotype control antibodies (0.01-0.5 μg/ml) for 1 hr. After washing, plates were then incubated with a peroxidase-conjugated anti-mouse IgG secondary antibody (Promega) for 1 hr. Plates were washed and developed with TMB substrate (Clinical Science Products) and the optical density (OD) was read at 450 nm (subtracting the background absorbance at 650 nm) on a SpectraMAX 190 plate reader (Molecular Devices).
Retroviral gene transduction. Test genes were cloned into a vector derived from the MoMLV-based vector pFB (Stratagene) downstream of the MoMLV LTR. A truncated form of the human nerve growth factor receptor (NGFR) preceded by an internal ribosomal entry site was used as a marker gene. Retroviral vector plasmid DNA was transfected into AmphoPack-293 cells (Clontech) by a modified calcium phosphate method according to the manufacturer's protocol (MBS transfection kit, Stratagene). Cell supernatants were harvested 48 hours post-transfection, filtered to remove cell debris (0.45 μm), and transferred onto exponentially growing HUVEC. DEAE dextran (10 μg/ml) was added to facilitate transduction. After 5-8 hr, the viral supernatant was removed and cells were cultured for an additional 40 hours. Gene transfer efficiency was determined by flow cytometric analysis using an NGFR-specific monoclonal antibody and was typically ≧70%.

Compound | Effect on VCAM-1 expression when the RAS/MAPK pathway is activated (HUVEC over-expressing MYD88, RAS*, MEK1* or MEK2* or IL-1β-stimulated, PD098059 3.7 μM added 1 hr before 24 hr cytokine stimulation) | Effect on VCAM-1 expression in TNF-α-treated cells (HUVEC treated with TNF-α, PD098059 3.7 μM added 1 hr before 24 hr stimulation) | Effect of IL-1β on TNF-induced VCAM-1 expression (HUVEC stimulated with 10 ng/ml TNF + 1 ng/ml IL-1) | Effect of IL-1β on TNF-induced VCAM-1 expression (HUVEC stimulated with 10 ng/ml TNF + 1 ng/ml IL-1, listed as IL-1)
COc1cccc(-c2cc(=O)c3ccccc3o2)c1N [PD098059] | reversed the effect of MYD88 or RAS* over-expression; also recorded: increases VCAM-1 expression | no effect |  | 
IL-1β: Recombinant human IL-1β from R&D Systems, pro-inflammatory cytokine |  |  | reduce the level of VCAM-1 expression | modulates the VCAM-1 expression induced by TNF
